Experimental data taken from publication PMC2217457 (The Journal of General Physiology, 2004).

Columns and labels:
mouse AChR αV46E = assay: Single-channel kinetics, αV46E AChR; type: cell-based
mouse AChR αS126A = assay: Single-channel kinetics, αS126A AChR; type: cell-based; conditions: clusters at different concentrations of ACh
mouse AChR αS126V = assay: Single-channel kinetics, αS126V AChR; type: cell-based; conditions: clusters at different concentrations of ACh
mouse AChR αP120G = assay: Single-channel kinetics, αP120G AChR; type: cell-based; conditions: clusters at different concentrations of ACh
mouse AChR αV46A = assay: Single-channel kinetics, αV46A AChR; type: cell-based
[1] = target: T1, mouse muscle-type AChR wild-type (Mus musculus, UniProt P02716+P04756+P20782); conditions: wt AChR
mouse AChR αR20L = conditions: 0.4 mM choline
mouse AChR αR55W = conditions: 20 mM choline
[2] = target: T1, mouse muscle-type AChR wild-type; conditions: wt AChRs; ref Zhou et al., 1999; Grosman and Auerbach, 2000a; cited from earlier work
mouse AChR αR55A = conditions: 20 mM choline

T1 sequence (P04756 21-457): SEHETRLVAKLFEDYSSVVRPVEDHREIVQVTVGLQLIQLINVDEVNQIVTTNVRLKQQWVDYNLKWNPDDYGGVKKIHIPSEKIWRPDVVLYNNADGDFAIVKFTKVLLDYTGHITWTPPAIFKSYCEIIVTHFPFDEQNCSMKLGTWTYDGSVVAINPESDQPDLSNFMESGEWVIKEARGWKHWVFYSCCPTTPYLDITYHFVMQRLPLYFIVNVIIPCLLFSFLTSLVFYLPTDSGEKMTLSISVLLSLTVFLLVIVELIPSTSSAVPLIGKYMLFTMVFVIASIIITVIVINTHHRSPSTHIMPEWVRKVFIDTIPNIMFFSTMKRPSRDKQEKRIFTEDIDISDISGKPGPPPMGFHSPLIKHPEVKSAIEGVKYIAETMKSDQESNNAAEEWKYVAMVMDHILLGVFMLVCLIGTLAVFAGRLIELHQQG
T1 sequence (P09690 24-501 partner): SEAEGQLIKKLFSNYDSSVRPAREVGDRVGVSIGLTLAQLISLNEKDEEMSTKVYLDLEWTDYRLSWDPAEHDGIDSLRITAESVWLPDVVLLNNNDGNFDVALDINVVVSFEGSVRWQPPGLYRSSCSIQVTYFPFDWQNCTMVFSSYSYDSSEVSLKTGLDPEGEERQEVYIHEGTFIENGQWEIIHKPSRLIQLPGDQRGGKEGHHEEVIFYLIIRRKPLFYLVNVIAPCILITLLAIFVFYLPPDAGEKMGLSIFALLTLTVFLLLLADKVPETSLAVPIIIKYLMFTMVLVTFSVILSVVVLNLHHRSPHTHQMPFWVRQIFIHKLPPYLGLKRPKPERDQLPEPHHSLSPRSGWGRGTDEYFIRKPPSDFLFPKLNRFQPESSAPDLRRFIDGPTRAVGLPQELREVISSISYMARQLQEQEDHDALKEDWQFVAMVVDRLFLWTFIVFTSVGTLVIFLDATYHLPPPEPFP
T1 sequence (P02716 25-520): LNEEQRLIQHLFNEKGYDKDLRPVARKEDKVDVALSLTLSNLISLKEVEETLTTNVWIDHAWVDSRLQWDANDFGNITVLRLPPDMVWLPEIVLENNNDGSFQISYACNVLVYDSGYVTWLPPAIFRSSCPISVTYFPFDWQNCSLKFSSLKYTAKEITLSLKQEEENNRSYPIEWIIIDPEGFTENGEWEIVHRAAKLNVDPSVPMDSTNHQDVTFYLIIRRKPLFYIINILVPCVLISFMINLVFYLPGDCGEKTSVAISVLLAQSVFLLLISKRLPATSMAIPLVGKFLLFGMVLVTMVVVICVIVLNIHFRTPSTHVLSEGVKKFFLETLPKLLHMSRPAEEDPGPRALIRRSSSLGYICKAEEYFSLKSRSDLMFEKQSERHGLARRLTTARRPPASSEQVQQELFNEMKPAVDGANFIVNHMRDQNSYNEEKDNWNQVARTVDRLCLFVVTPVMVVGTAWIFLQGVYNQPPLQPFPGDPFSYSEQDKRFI
T1 sequence (P20782 21-493): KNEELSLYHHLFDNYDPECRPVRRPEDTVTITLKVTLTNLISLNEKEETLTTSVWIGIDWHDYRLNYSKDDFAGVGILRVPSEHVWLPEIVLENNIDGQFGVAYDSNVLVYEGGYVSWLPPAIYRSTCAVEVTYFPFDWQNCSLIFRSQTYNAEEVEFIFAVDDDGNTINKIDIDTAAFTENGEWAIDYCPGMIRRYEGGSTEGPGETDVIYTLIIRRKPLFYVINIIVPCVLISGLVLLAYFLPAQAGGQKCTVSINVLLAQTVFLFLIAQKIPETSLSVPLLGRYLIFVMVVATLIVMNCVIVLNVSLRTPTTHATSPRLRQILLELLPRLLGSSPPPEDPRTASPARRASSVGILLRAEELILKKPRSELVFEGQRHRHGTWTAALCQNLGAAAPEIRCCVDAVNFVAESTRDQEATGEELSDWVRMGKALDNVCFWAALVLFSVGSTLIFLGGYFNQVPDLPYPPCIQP

CC(=O)OCC[N+](C)(C)C [ACh, acetylcholine]
α2 ACh (diliganded channel-closing rate constant) (mouse AChR αV46E; low ACh): 6,613 s^−1 | β2 ACh (diliganded channel-opening rate constant) (mouse AChR αV46E; saturating ACh): 795 s⁻¹ | α2 ACh (diliganded channel-closing rate constant) (mouse AChR αS126A): 2,598 | β2 ACh (diliganded channel-opening rate constant) (mouse AChR αS126A): 48,918 | α2 ACh (diliganded channel-closing rate constant) (mouse AChR αS126V): 1,770 | β2 ACh (diliganded channel-opening rate constant) (mouse AChR αS126V): 40,253 | α2 ACh (diliganded channel-closing rate constant) (mouse AChR αP120G): 2,006 | β2 ACh (diliganded channel-opening rate constant) (mouse AChR αP120G): 49,531 | α2 ACh (diliganded channel-closing rate constant) (mouse AChR αV46A; low ACh): 4,135 s^−1 | β2 ACh (diliganded channel-opening rate constant) (mouse AChR αV46A; saturating ACh): 1,340 s^−1

C[N+](C)(C)CCO [Choline, choline]
α2 Choline (diliganded channel-closing rate constant) (mouse AChR αN47A; 0.4 mM choline): 1,450 s^−1 | β2 Choline (diliganded channel-opening rate constant) (mouse AChR αN47A; 20 mM choline): 933 s⁻¹ | α2 Choline (diliganded channel-closing rate constant) (mouse AChR αV29L; 0.4 mM choline): 2,644 | β2 Choline (diliganded channel-opening rate constant) (mouse AChR αV29L; 20 mM choline): 200 | α2 Choline (diliganded channel-closing rate constant) (mouse AChR αN47K; 0.4 mM choline): 2,371 s^−1 | β2 Choline (diliganded channel-opening rate constant) (mouse AChR αN47K; 20 mM choline): 607 s⁻¹ | α2 Choline (diliganded channel-closing rate constant) (mouse AChR αS143T; 0.4 mM choline): 2,200 | β2 Choline (diliganded channel-opening rate constant) (mouse AChR αS143T; 20 mM choline): 118 | α2 Choline (diliganded channel-closing rate constant) (mouse AChR αM144T; 0.4 mM choline): 1,180 | β2 Choline (diliganded channel-opening rate constant) (mouse AChR αM144T; 20 mM choline): 54 | α2 Choline (diliganded channel-closing rate constant) (mouse AChR αL146F; 0.4 mM choline): 2,234 | β2 Choline (diliganded channel-opening rate constant) (mouse AChR αL146F; 20 mM choline): 97 | α2 Choline (diliganded channel-closing rate constant) (mouse AChR αA122L; 0.4 mM choline): 2,142 | β2 Choline (diliganded channel-opening rate constant) (mouse AChR αA122L; 20 mM choline): 358 | α2 Choline (diliganded channel-closing rate constant) ([1]; 0.4 mM choline): 2,100 s^−1 | β2 Choline (diliganded channel-opening rate constant) ([1]; 20 mM choline): 100 s⁻¹ | α2 Choline (diliganded channel-closing rate constant) (mouse AChR αM144I; 0.4 mM choline): 2,823 | β2 Choline (diliganded channel-opening rate constant) (mouse AChR αM144I; 20 mM choline): 93 | α2 Choline (diliganded channel-closing rate constant) (mouse AChR αV54L; 0.4 mM choline): 1,340 | β2 Choline (diliganded channel-opening rate constant) (mouse AChR αV54L; 20 mM choline): 124 | α2 Choline (diliganded channel-closing rate constant) (mouse AChR αN141V; 0.4 mM choline): 1,389 s^−1 | β2 Choline (diliganded channel-opening rate constant) (mouse AChR αN141V; 20 mM choline): 260 s⁻¹ | α2 Choline (diliganded channel-closing rate constant) (mouse AChR αS143A; 0.4 mM choline): 3,054 | β2 Choline (diliganded channel-opening rate constant) (mouse AChR αS143A; 20 mM choline): 79 | α2 Choline (diliganded channel-closing rate constant) (mouse AChR αM144L; 0.4 mM choline): 2,911 | β2 Choline (diliganded channel-opening rate constant) (mouse AChR αM144L; 20 mM choline): 917 | α2 Choline (diliganded channel-closing rate constant) (mouse AChR αL65V; 0.4 mM choline): 2,166 | β2 Choline (diliganded channel-opening rate constant) (mouse AChR αL65V; 20 mM choline): 124 | α2 Choline (diliganded channel-closing rate constant) (mouse AChR αI116A; 0.4 mM choline): 2,238 | β2 Choline (diliganded channel-opening rate constant) (mouse AChR αI116A; 20 mM choline): 110 | α2 Choline (diliganded channel-closing rate constant) (mouse AChR αR20L): 2,119 | α2 Choline (diliganded channel-closing rate constant) (mouse AChR αQ48A; 0.4 mM choline): 10,271 s^−1 | β2 Choline (diliganded channel-opening rate constant) (mouse AChR αQ48A; 20 mM choline): 2,836 s^−1 | β2 Choline (diliganded channel-opening rate constant) (mouse AChR αR55W): 98.2 | α2 Choline (diliganded channel-closing rate constant) (mouse AChR αL56A; 0.4 mM choline): 2,707 | β2 Choline (diliganded channel-opening rate constant) (mouse AChR αL56A; 20 mM choline): 217 | α2 Choline (diliganded channel-closing rate constant) (mouse AChR αL40A; 0.4 mM choline): 1,629 | β2 Choline (diliganded channel-opening rate constant) (mouse AChR αL40A; 20 mM choline): 312 | α2 Choline (diliganded channel-closing rate constant) (mouse AChR αV46I; 0.4 mM choline): 1,982 s^−1 | β2 Choline (diliganded channel-opening rate constant) (mouse AChR αV46I; 20 mM choline): 249 s⁻¹ | α2 Choline (diliganded channel-closing rate constant) (mouse AChR αF137M; 0.4 mM choline): 1,017 s^−1 | β2 Choline (diliganded channel-opening rate constant) (mouse AChR αF137M; 20 mM choline): 225 s⁻¹ | α2 Choline (diliganded channel-closing rate constant) (mouse AChR αM144A; 0.4 mM choline): 2,514 | β2 Choline (diliganded channel-opening rate constant) (mouse AChR αM144A; 20 mM choline): 64 | α2 Choline (diliganded channel-closing rate constant) (mouse AChR αD138E; 0.4 mM choline): 1,456 s^−1 | β2 Choline (diliganded channel-opening rate constant) (mouse AChR αD138E; 20 mM choline): 239 s⁻¹ | α2 Choline (diliganded channel-closing rate constant) (mouse AChR αL35A; 0.4 mM choline): 2,423 | β2 Choline (diliganded channel-opening rate constant) (mouse AChR αL35A; 20 mM choline): 182 | α2 Choline (diliganded channel-closing rate constant) (mouse AChR αL146M; 0.4 mM choline): 2,435 | β2 Choline (diliganded channel-opening rate constant) (mouse AChR αL146M; 20 mM choline): 118 | α2 Choline (diliganded channel-closing rate constant) (mouse AChR αL110V; 0.4 mM choline): 1,874 | β2 Choline (diliganded channel-opening rate constant) (mouse AChR αL110V; 20 mM choline): 70 | diliganded gating equilibrium constant, times smaller than ACh [2]: 500 times | β2 Choline (diliganded channel-opening rate constant) (mouse AChR αR55A): 164
